Results published in PubChem BioAssay AID179 (DTP/NCI, 2004).
pEC50, pIC50: −log10 of the molar value. Activity calls are given as the source filed them.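 Rule for the calls: active = compounds giving half or more protection of infected cells from virus-caused growth loss, again on retest; inactive = the rest.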 Where a SMILES comes first, the peptide text is derived from it. The star is where a group is joined. Cbz = O=C(OCc1ccccc1)*

Tested on: CEM cells HIV-1 protection, formazan growth assay
Test: NCI AIDS Antiviral Assay
Settings: for pIC50: measured here: growth of uninfected CEM cells
Outline: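 CEM (human) cells, HIV-1 infected vs uninfected, 5-point dosing, formazan growth read-out. Retest threshold 50% protection.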

Compound	pEC50	pIC50	outcome
Cc1ccc(Nc2sc(C)cc2C#N)c([N+](=O)[O-])c1	< 3.70	3.75	–
O=C1C(=Cc2ccccc2[N+](=O)[O-])N=C(c2ccccc2)N1n1c(-c2ccccc2)nc2ccccc2c1=O	< 3.70	4.53	–
COC(=O)C1=CC2C(=O)OC1C1C(=O)NC(=O)C21 (stereo unspecified)	–	–	inactive
O=S(=O)(NC1CCC[C@H]1O)c1ccccc1 (stereo partly specified)	–	–	inactive
CC(=O)OCC1C(OC(C)=O)C(OC(C)=O)C(OC(C)=O)P1(=O)c1ccccc1 (stereo unspecified)	< 3.23	3.27	–
CC(=O)OCCCOCn1c(Cc2ccccc2)c(C)c(=O)[nH]c1=O	4.00	< 3.70	–
O=C(/C=C/c1cc2ccccc2o1)N1CCN(c2ccccn2)CC1	< 3.70	3.72	–
N#CCCN(c1ccc(C=O)cc1)S(=O)(=O)c1ccccc1	< 4.64	< 4.64	–
S=C1N(c2ccc(Br)cc2)C2=Nc3ccccc3SC(=C2N=Nc2ccc(Br)cc2)N1c1ccc(Cl)cc1	< 4.49	5.21	–
CN(C)/C=N\c1c(C#N)c(CC#N)nn1-c1ccccc1	< 3.70	< 3.70	–
OCC1OC(n2cnc3c(Cl)nc(Nc4ccccc4)nc32)CC1O (stereo unspecified)	< 3.70	4.55	–
COc1cc2c(cc1OC)C1c3ccccc3CCN1CCC2 (stereo unspecified)	< 3.70	< 3.70	–
CN(C)CCNCCCNc1c2ccccc2nc2cccc([N+](=O)[O-])c12	< 5.70	7.89	–
NC(CSS(=O)(=O)O)=NCCSc1ccc(Cl)cc1	< 3.70	4.22	–
CC1(C)C2CCC1(C)[C@H](O)[C@H]2Nc1cc(C(F)(F)F)cc(C(F)(F)F)c1 (stereo partly specified)	< 4.70	6.29	–
Cc1cccc2c1CC(C1OC(=O)c3c(C)cccc31)C2=O (stereo unspecified)	< 3.70	3.92	–
CCOC(=O)CCCSCCCC1(CCCSCCCC(=O)OCC)OCCO1	< 4.40	< 4.40	–
O=S(OC12CC3CC(CC(C3)C1)C2)c1cc(Cl)cc(Cl)c1OCc1ccccc1 (stereo unspecified)	–	–	inactive
COC(=O)C1=CC[C@@H]2C(C(=O)O)=CO[C@@H](OC3OC(CO)C(O)C(O)C3O)[C@H]12 (stereo partly specified)	< 3.70	< 3.70	–
COC(=O)c1cc(C(=O)OC)c(CC(=O)C(=O)Nc2ccc(Cl)c(C(F)(F)F)c2)nc1CC(=O)C(=O)Nc1ccc(Cl)c(C(F)(F)F)c1	< 3.70	3.83	–
COC(=O)C(CC(C)C)NC(=O)C(CCCN=C(N)N)NC(=O)OCc1ccccc1 (stereo not drawn) (Cbz-Arg-Leu-OMe; configuration not given here)	< 3.70	< 3.70	–

Compound	pEC50	pIC50	outcome
CC12C/C(=C\c3ccccc3)C(=O)C3C1CCCC32	–	–	inactive
CCOC(=O)c1cnc2ccc(C)cn2c1=O	–	–	inactive
C#CC1(O)C(/C=N/O)OC(n2ccc(=O)[nH]c2=O)C1O[Si](C)(C)C(C)(C)C (stereo unspecified)	< 3.70	4.14	–
O=c1c2ccccc2n2c(=S)[nH]nc2n1-c1ccccc1	< 3.70	< 3.70	–
c1cc2c(cc1[C@@H]1OC[C@@H]3[C@H]1CO[C@H]3c1ccc3c(c1)OCO3)OCO2	< 3.70	4.10	–
NNC(=S)N/N=C(\C(=O)Nc1cccc(O)c1)C1C(=O)NC(=S)NC1=O	< 3.20	3.35	–
N#CC1(C2CC(=O)N(c3ccccc3)C2=O)CCCCC1=O (stereo unspecified)	–	–	inactive
CCn1cnnc1-c1nsc2ccccc12	< 4.09	4.12	–
O=C(Nc1ccc(NC(=O)c2ccc(C3=NCCN3)cc2)cc1)Nc1ccc(C2=NCCN2)cc1	< 3.70	4.30	–
C[PH+](C)CC[PH+](C)CC[PH+](C)C.[C-]#[O+].[C-]#[O+].[C-]#[O+].[Cr]	< 5.54	< 5.54	–
Cc1cc(C)c(-c2noc(-c3ccc(Cl)cc3)c2C2=NCCCN2)c(C)c1	< 4.45	4.61	–
COc1cc(C(=O)O)c(C(=O)c2ccc([N+](=O)[O-])cc2)cc1OC	< 3.70	< 3.70	–
c1ccc([As](c2ccccc2)c2cccc[c]2[Bi]([c]2ccccc2)[c]2ccccc2)cc1	< 4.97	< 4.97	–
CC1OC(OC2C(Oc3cc(O)c4c(c3)O[C@H](c3ccc(O)cc3)CC4=O)OC(CO)C(O)C2O)C(O)C(O)C1O (stereo partly specified)	< 3.70	< 3.70	–
Cc1cn(C2CCC(CO)(CO)CC2O)c(=O)[nH]c1=O (stereo unspecified)	< 3.06	< 3.06	–
O=C(S)C(=O)Cc1nnn(-c2ccccc2)c1-c1ccccc1	< 3.61	< 3.61	–
NC(=O)NC(S(=O)(=O)O)S(=O)(=O)O	–	–	inactive
NS(=O)(=O)c1ccc(NC(=O)c2ccc3nc4ccccc4c(Nc4ccc(S(N)(=O)=O)cc4)c3c2)cc1	4.17	< 3.70	–
COC1/C=C\C=C(/C)C(=O)NC2=CC(=O)C(NCCCl)=C(CC(C)CC(OC)C(O)C(C)/C=C(/C)C1OC(N)=O)C2=O (stereo unspecified)	–	–	inactive
COC(=O)C(=O)C1CSC2=C(CS(=O)(=O)c3ccccc32)C1=O (stereo unspecified)	< 3.70	< 3.70	–
Cc1nnc2n1-c1ccc(Cl)cc1C(c1ccccc1)=[N+]([O-])C2	< 3.40	3.45	–

Compound	pEC50	pIC50	outcome
O=C1N=C2N=C(c3ccc(Cl)cc3)N(c3ccc(Cl)cc3)N2Sc2ccccc21	< 4.95	< 4.95	–
OCCCNCC(O)c1ccc(OCc2ccccc2)c(OCc2ccccc2)c1 (stereo unspecified)	< 3.70	5.29	–
CC1(C)CCCC2(C)C3=C(CCC12)C(=O)OC3 (stereo unspecified)	< 4.51	< 4.51	–
COc1cc(OC)cc(OCc2ccc3nc(-c4ccccc4)c(Cl)nc3c2)c1	< 4.00	< 4.00	–
CC1=C(/C=C/C2=CC(=C\C(=O)O)/CC(C3=C(C)CCCC3(C)C)C2)C(C)(C)CCC1 (stereo unspecified)	–	–	inactive
CC1(C)CCC2(C(=O)OC3OC(CO)C(O)C(O)C3O)CCC3(CO)C(=CCC4C5(C)CC(O)C(O)C(C)(C(=O)OC6OC(CO)C(O)C(O)C6O)C5CCC43C)C2C1 (stereo unspecified)	–	–	inactive
O=c1nc2[nH]c3c4cccc5cccc(c3nc2c(=O)[nH]1)c54	< 3.70	6.22	–
CN1C(=O)C(Br)SC1=S (stereo unspecified)	< 4.50	< 4.50	–
C/C(CCc1ccccc1)=N\Nc1ccc([N+](=O)[O-])cc1[N+](=O)[O-]	< 4.66	< 4.66	–
O=C1NC(=O)C23C(=O)NC(=O)C12C1C=CC3CC1 (stereo unspecified)	< 3.70	< 3.70	–
CN(C)P(=S)(CCPc1ccccc1)N(C)C (stereo unspecified)	< 4.74	< 4.74	–
O=C1C(c2ccccc2)=C(c2ccccc2)C(c2ccc(Cc3ccc(C4=C(c5ccccc5)C(=O)C(c5ccccc5)=C4c4ccccc4)cc3)cc2)=C1c1ccccc1	< 5.87	< 5.87	–
C=CCn1c(-c2cc(C(C)(C)C)c(O)c(C(C)(C)C)c2)cs/c1=N\C(P(=O)(O)O)P(=O)(O)O	< 3.70	4.67	–
CCc1ccc2c(c1)CC1(C2)Cc2cc3c(cc2C1)C(=O)CC3 (stereo unspecified)	< 3.70	4.90	–
BrC/C=C/C[P+](c1ccccc1)(c1ccccc1)c1ccccc1	< 5.28	6.22	–
N#Cc1c(NC(=O)C(F)(F)F)sc2c3c(=O)c4ccccc4c(=O)c=3oc3ccccc3c12	< 4.00	4.76	–
CCOc1ccc(NC(=S)NC=C(C(N)=O)C(N)=O)cc1	< 3.70	< 3.70	–
CC(=O)Nc1c(I)c(NC(C)=O)c(I)c(C(=O)O)c1I	–	–	inactive
NS(=O)(=O)c1ccc(Nc2c3ccccc3nc3c(C(=O)N4CCN(CCO)CC4)cccc23)cc1	< 4.36	< 4.36	–
CCOC(=O)c1ccc(CSc2ccc(N)cc2)cc1	< 3.34	3.62	–
CCN(C(=O)N[C@@H](C)C(=O)N[C@@H](Cc1ccccc1)C(=O)OC)c1ccccc1	–	–	inactive

Compound	pEC50	pIC50	outcome
CC(C)(C)/[N+]([O-])=[N+](\[O-])C(C)(C)C	< 3.70	4.47	–
CSc1nnc2nc[nH]n12	< 3.70	< 3.70	–
O=C(/C=C/C(=O)N1CCCC1)N1CCCC1	< 3.70	< 3.70	–
O=C(Nc1ccc(S(=O)(=O)N[C@@H](C(=O)O)c2ccccc2)cc1)c1ccc(F)cc1	–	–	inactive
CCCCC/C=C/C/C=C/CCCCCCCC(=O)OCC(COC1OC(CS(=O)(=O)O)C(O)C(O)C1O)OC(=O)CCCCCCC/C=C/C/C=C/CCCCC (stereo unspecified)	< 4.56	< 4.56	–
Cc1cc(=O)oc2c(C3=NN(C=O)C(c4ccccc4)C3)c(O)ccc12 (stereo unspecified)	–	–	inactive
CCCNC(=O)Cn1c(-c2ccccc2)cc2ccccc21	< 3.70	< 3.70	–
COc1ccc2nc3ccc(OC)cc3c(SCc3ccccc3)c2c1	< 3.70	< 4.00	–
CN(C)CCCNc1ccc([N+](=O)[O-])c2nc3ccccc3c(N)c12	< 3.70	6.68	–
CSCCCNC(=O)c1csc(-c2csc(CCNC(=O)CNC(=O)CNC(=O)OC(C)(C)C)n2)n1	< 3.35	3.67	–
Cc1n[nH]c(=O)n1N1C(=O)CCCC1=O	< 3.70	< 3.70	–
CN1C(=O)CC(=O)N1/C(=C/c1ccccc1)c1ccccc1	< 3.70	3.81	–
OC(c1cccnc1)C(F)(F)c1nc2ccccc2o1 (stereo unspecified)	< 3.70	< 3.70	–
N#CC(NC12CC3CC(CC(C3)C1)C2)c1ccccc1 (stereo unspecified)	–	–	inactive
COC1CC(C)C(OC)C2=CC(=O)C=C(NC(=O)/C(C)=C/C=C\C(C)C(OC(N)=O)/C(C)=C\C(C)C1OC)C2=O (stereo unspecified)	< 5.70	6.69	–
CCOC(=O)c1c(C)[nH]c(=S)c(C#N)c1-c1ccc(OC)cc1	< 3.70	4.09	–
CC(=O)/C(=C/N1CC(=O)NC1=S)C(=O)Nc1ccccc1C	< 3.70	< 3.70	–
Cc1ccc(S(=O)(=O)OCC2OC(CCCO)C/C([Si](C)(C)C)=C\CC2Cl)cc1 (stereo unspecified)	< 5.09	< 5.09	–
CO[C@H]1C[C@@H]2CC[C@@H](C)[C@@](O)(O2)C(=O)C(=O)N2CCCC[C@H]2C(=O)O[C@H]([C@H](C)C[C@@H]2CC[C@@H](O)[C@H](OC)C2)CC(=O)[C@H](C)C=C(C)[C@@H](O)[C@@H](OC)C(=O)[C@H](C)C[C@H](C)/C=C/C=C/C=C1C	< 4.85	5.12	–
CCC[n+]1nc2ccccc2c(=Nc2ccccc2[N+](=O)[O-])[n-]1	< 4.63	< 4.63	–
